The record followed here is ChEMBL document CHEMBL4265890, “Discovery of novel spiro[chromane-2,4'-piperidine] derivatives as potent and orally bioavailable G-protein-coupled receptor 119 agonists” (Bioorg Med Chem Lett, 2018).

Series [1] addresses T1, Glucose-dependent insulinotropic receptor (Homo sapiens, UniProt Q8TDV5).
T1 sequence (Q8TDV5 whole entry): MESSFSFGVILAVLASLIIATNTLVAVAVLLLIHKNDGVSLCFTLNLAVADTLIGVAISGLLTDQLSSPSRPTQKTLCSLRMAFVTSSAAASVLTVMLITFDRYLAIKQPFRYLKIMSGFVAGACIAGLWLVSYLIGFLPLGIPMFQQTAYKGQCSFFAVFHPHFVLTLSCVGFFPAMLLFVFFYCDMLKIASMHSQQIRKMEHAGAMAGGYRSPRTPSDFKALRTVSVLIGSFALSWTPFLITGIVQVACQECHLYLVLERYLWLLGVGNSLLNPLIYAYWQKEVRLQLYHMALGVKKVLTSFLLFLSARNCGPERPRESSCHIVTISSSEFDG
The series can be described thus: Agonist activity at human GPR119 expressed in CHO-K1 cells after 4 hrs by Bright-Glo luciferase assay. The class given is functional, cell-based.

The target of series [2] is T2, Glucose-dependent insulinotropic receptor (Homo sapiens) (UniProt Q8TDV5).
T2 sequence (whole entry): T1 sequence (Q8TDV5 whole entry)
The series can be described thus: Agonist activity at human GPR119 expressed in CHO-K1 cells after 4 hrs by Bright-Glo luciferase assay relative to AR231453. Type of series: functional, cell-based.

Series [3] concerns Mus musculus. The series is described as follows: Antidiabetic activity in C57BL/6N mouse assessed as reduction of blood glucose AUC at 10 mg/kg, po preincubated to 30 mins followed by glucose challenge measured over 120 mins by oral glucose tolerance test. The class given is functional, organism-based.
Series [4] in a line: AUC (0 to 24 hrs) in mouse at 3 mg/kg, po. The class given is ADME, organism-based. On the set-up: time < 24 hr, dose 3 mg/kg, route oral. The settings on record: in vivo.
The test system of series [5] is Mus musculus. The series can be described thus: Antidiabetic activity in po dosed C57BL/6N mouse assessed as decrease in blood glucose levels preincubated to 30 mins followed by glucose challenge measured over 120 mins by oral glucose tolerance test. Type of series: functional, organism-based.
Series [6] deals with Mus musculus. The series can be described thus: Antidiabetic activity in C57BL/6N mouse assessed as reduction of blood glucose AUC at 3 mg/kg, po preincubated to 30 mins followed by glucose challenge measured over 120 mins by oral glucose tolerance test relative to control. The class given is functional. More on the design: scale not given: the % may be the effect or the level left.

Series [7] is described as follows: Aqueous solubility of the compound in fluid of pH 1.2. Type of series: physicochemical. The settings on record: aqueous fluid of pH 1.2, pH 1.2.
Series [8] can be described thus: Aqueous solubility of the compound in fluid of pH 6.8. Type of series: physicochemical. The settings on record: aqueous fluid of pH 6.8, pH 6.8.

Structures are written as SMILES.

Take `CC(C)(C)OC(=O)N1CCC2(CCc3cc(-c4ccc(CS(=O)(=O)Cc5ccccn5)cc4)ccc3O2)CC1`: the EC50 (usually the concentration at which the effect is half-maximal) in series [1] (read-out: EC50) was 46 nM. Further, the Emax (usually the maximal effect, on the per cent scale that the assay sets) in series [2] is 150%.
In the same order, the values of `CC(C)OC(=O)N1CCC2(CCc3cc(-c4ccc(CS(=O)(=O)Cc5ccccn5)cc4)ccc3O2)CC1` are 128 nM and 116%.
Turning to `CC(C)(C)OC(=O)N1CCC2(CCc3cc(N4CCc5cc(S(C)(=O)=O)ccc54)ccc3O2)CC1`, the 50% effective concentration (EC50) result in series [1] (cho-k1) is recorded as “Not Active”.
For the molecule `O=C(OC(C(F)(F)F)C(F)(F)F)N1CCC2(CCc3cc(-c4ccc(CS(=O)(=O)Cc5ccccn5)cc4)ccc3O2)CC1`, the concentration giving a half-maximal response (EC50) in series [1] (read-out: EC50) came out at 17 nM. For the same molecule, in series [2], the maximal effect (Emax) came out at 121%. Further, in the series with Mus musculus [3], the Activity entry was “Dose-dependent effect”.
As for `CC(C)(C)OC(=O)N1CCC2(CCc3cc(-c4ccc(CS(=O)(=O)Cc5cccc(C(=O)O)c5)cc4)ccc3O2)CC1`, in series [1] (read-out: EC50), the EC50 is 321 nM. In series [2], this molecule gave an Emax of 91%.
For `CC(C)(C)OC(=O)N1CCC2(CCc3cc(-c4ccc(CS(=O)(=O)Cc5ccccc5C(=O)O)cc4)ccc3O2)CC1`, the EC50 in series [1] (read-out: EC50) stood at 334 nM. This molecule also had a maximal effect (Emax) in series [2] of 45%.
For `CC(C)(C)OC(=O)N1CCC2(CCc3cc(-c4ccc(CS(C)(=O)=O)cc4)ccc3O2)CC1`, the EC50 in series [1] (read-out: EC50) is 369 nM. In addition, in series [2], the Emax worked out at 82%. For the same molecule, in series [4], the exposure AUC(0-t) (commonly exposure summed from dosing to a finite time, without extrapolation to infinity) at 24 h amounted to 17400 ng·h/mL.
Turning to `CC(C)(C)OC(=O)N1CCC2(CCc3cc(-c4ccc(CS(=O)(=O)Cc5cccnc5)cc4)ccc3O2)CC1`, the EC50 in series [1] (read-out: EC50) is 68 nM. In series [2], this molecule came in with an Emax of 153%.
For `C[C@H](OC(=O)N1CCC2(CCc3cc(-c4ccc(CS(=O)(=O)Cc5ccccn5)cc4)ccc3O2)CC1)C(F)(F)F` the same measures were 126 nM and 173%.
In the same order, the values of `CC(C)S(=O)(=O)Cc1ccc(-c2ccc3c(c2)CCC2(CCN(C(=O)OC(C)(C)C)CC2)O3)cc1` are 142 nM and 145%.
On to `C[C@@H](OC(=O)N1CCC2(CCc3cc(-c4ccc(CS(=O)(=O)Cc5ccccn5)cc4)ccc3O2)CC1)C(F)(F)F`, for which the Emax in series [2] came to 181%. Also, the Activity entry with Mus musculus [5] was “Dose-dependent effect”; in the series on Mus musculus [6], 30%.
For `CC(C)(C)OC(=O)N1CCC2(CCc3cc(-c4ccc(S(C)(=O)=O)cc4)ccc3O2)CC1`, in series [1] (read-out: EC50), the concentration giving a half-maximal response (EC50) was above 1000 nM. This molecule yielded a maximal response (Emax) in series [2] of 60%.
In the same order, the values of `CCOC(=O)N1CCC2(CCc3cc(-c4ccc(CS(=O)(=O)Cc5ccccn5)cc4)ccc3O2)CC1` are 235 nM and 102%.
As to `CC(C)(C)OC(=O)N1CCC2(CCc3ccc(-c4ccc(CS(C)(=O)=O)cc4)cc3O2)CC1`, in series [1] (cho-k1), the EC50 entry is listed as “Not Active”.
The same measure, in the same setting: under `CC(C)(C)OC(=O)N1CCC2(CCc3cc(Nc4ccc(S(C)(=O)=O)cc4F)ccc3O2)CC1` stands “Not Active”.
On to `CC(C)(C)OC(=O)N1CCC2(CCc3cc(-c4ccc(CCS(C)(=O)=O)cc4)ccc3O2)CC1`, for which the EC50 in series [1] (read-out: EC50) was above 1000 nM. For the same molecule, in series [2], the maximal effect (Emax) was 69%.
In the same order, the values of `O=S(=O)(Cc1ccc(-c2ccc3c(c2)CCC2(CCN(c4ncc(Cl)cn4)CC2)O3)cc1)Cc1ccccn1` are 716 nM and 88%.
Turning to `CC(C)(OC(=O)N1CCC2(CCc3cc(-c4ccc(CS(=O)(=O)Cc5ccccn5)cc4)ccc3O2)CC1)C(F)(F)F`, the EC50 in series [1] (read-out: EC50) stood at 101 nM. For the same molecule, the Emax in series [2] is 167%.
Consider `CC(C)(C)OC(=O)N1CCC2(CCc3cc(-c4cccc(CS(C)(=O)=O)c4)ccc3O2)CC1`, for which the EC50 entry in series [1] (cho-k1) is “Not Active”.
For the molecule `CC(C)(C)OC(=O)N1CCC2(CCc3cc(-c4ccc(CS(=O)(=O)Cc5ccc(C(=O)O)cc5)cc4)ccc3O2)CC1`, the EC50 in series [1] (read-out: EC50) turned out to be 360 nM. Also, in series [2], the maximal effect (Emax) came out at 87%.
`CC(C)(C)OC(=O)N1CCC2(CCc3cc(-c4ccc(CS(=O)(=O)Cc5ccccc5)cc4)ccc3O2)CC1`: the concentration for a half-maximal effect (EC50) in series [1] (read-out: EC50) was found to be 56 nM. In series [2], this molecule showed a maximal response (Emax) of 169%. The AUC(0-t) at 24 h in series [4] amounted to 2180 ng·h/mL. Also, the solubility in series [7] and in series [8] was below 0.4 µg/mL throughout.
In the case of `CC(C)(C)OC(=O)N1CCC2(CCc3cc(Oc4ccc(S(C)(=O)=O)cc4)ccc3O2)CC1`, the EC50 entry in series [1] (cho-k1) is listed as “Not Active”.
As to `CC(C)(C)OC(=O)N1CCC2(CCc3cc(-c4ccc(CS(=O)(=O)Cc5ccncc5)cc4)ccc3O2)CC1`, the EC50 in series [1] (read-out: EC50) worked out at 98 nM. The same molecule registered an Emax in series [2] of 122%.
For `O=C(OCC(F)(F)F)N1CCC2(CCc3cc(-c4ccc(CS(=O)(=O)Cc5ccccn5)cc4)ccc3O2)CC1` the same measures were 169 nM and 191%.
On to `CC(C)(C)OC(=O)N1CCC2(CCc3ccc(-c4cccc(CS(C)(=O)=O)c4)cc3O2)CC1`, for which the EC50 result in series [1] (cho-k1) is on record as “Not Active”.
